Laboratory results reported in US20120071533A1, “ANTI-FUNGAL FORMULATION” (priority 2009, published 2012).
Where “and” joins values, the source holds several entries; their conditions need not be identical. Equal values may be shown once. Marks after values point to notes of the source that are not given here. Each block holds one molecule with its values, some of them ahead of it.

Experiments:
[1] = cited from earlier work
genus Candida = test: In vitro antifungal activity (MIC) against the genus Candida; format: cell-based
Procedure: (§1) The antifungal activities of luliconazole, the Z form of luliconazole, and the SE form of luliconazole were determined. The compounds were tested against the genus Trichophyton and the genus Candida. The MICs against Trichophyton were 15-250 times higher for the Z form and 120-1000 times higher for the S-E form than for luliconazole. The MICs against the genus Candida were 4-500 times higher for the Z form and 8-1000 times higher for the S-E form than for luliconazole.

[2] = Visual observations of luliconazole solubility samples (crystals / clear solution); format: physicochemical; details: for concentration at which luliconazole was completely soluble (visual observations): pilot studies
Procedure: (§2) Typically, luliconazole was weighed into a screw-cap glass vial, the desired solvent was added and the vial was tightly closed. The vials containing suspension were sonicated in an ultra-sonicator bath at 40° C. for 20-30 seconds; the vials were taken out of the bath and swirled to mix the contents. The sonication and swirling steps were repeated 3-4 times till most of the luliconazole was dissolved. […] The samples were stored at RT (21.5° C.,±1.5) and at 4° C. in tightly closed screw-cap glass vials. Sample preparation was conducted in a dark room under yellow light and samples were protected from light during storage.

[3] = Solubility of luliconazole in solvents and model formulations by UV spectrophotometer at 296 nm, 4° C. and RT (21.5° C., ±1.5); format: physicochemical
Procedure: as §2
Solubility was determined after 24 hours and again after 3 days at respective storage conditions (RT and 4° C.) using a UV spectrophotometer (Pharma Spec 1700; Shimadzu). Samples for quantitative determination of solubility were drawn from the supernatant area of the suspension (solution) into a 3 ml syringe with a 0.1 μm (pore size) syringe filter (nylon, 13 mm) attached. The desired amount of solution was delivered into a 100 ml volumetric flask that was immediately closed tightly with a stopper and weighed accurately to determine the exact weight of the solution. As ethyl acetate is incompatible with the plastic in the syringe and the housing of the syringe-filter, the ethyl acetate solution was centrifuged at 4200 rpm for 5 minutes and the supernatant solution was drawn for analysis using a glass Pasteur pipette.
The samples taken in volumetric flasks were diluted with methanol to the mark and diluted further before analyzing on the UV spectrophotometer. A five point standard curve of luliconazole (at 20, 10, 6, 4 and 2 μg/ml) in methanol was determined by reading the absorbance at 296 nm. The samples were also read at 296 nm and the concentration of luliconazole was determined from the equation of the standard curve. The solubility of luliconazole in respective solvents and model formulations was then determined as % wt/wt.
Solubility was calculated as % wt/wt from the UV spectrophotometric data read at 296 nm.

[4] = tested on: Trichophyton rubrum, Trichophyton mentagrophytes and Trichophyton tonsurans; details: versus terbinafine, liranaftate, butenafine, amorolfine, ketoconazole, clotrimazole, neticonazole, miconazole, bifonazole; cited from earlier work
genus Trichophyton = test: In vitro antifungal activity (MIC) against the genus Trichophyton; format: cell-based
Procedure: as §1

onychomycosis = onychomycosis of the toenail; package insert; cited from earlier work
[5] = in Benzyl alcohol (theoretical 40%; #853-38-13)
[6] = in Ethanol (theoretical 3.5%; #853-38-15)
[7] = in Ethyl acetate (theoretical 6.5%; #853-38-12)
[8] = in Transcutol P (theoretical 15%; #853-38-17)
[9] = in Acetone (theoretical 18%; #853-38-14)

MIC Range (genus Candida; C. albicans (6 strains)): 30 to 250 ng/mL
MIC Range (genus Candida; C. glabrata (5 strains)): ≦0.0080-0.030 μg/mL
visual observations at 3 days/4° C. [2, 5]: clear solution
visual observations at 3 days/RT [2, 5]: clear solution
visual observations at 3 days/RT [2, 6]: clear solution
visual observations at 3 days/4° C. [2, 7]: clear solution
visual observations at 3 days/RT [2, 7]: clear solution
visual observations at 3 days/4° C. [2, 8]: clear solution
visual observations at 3 days/RT [2, 8]: clear solution
concentration at which luliconazole was completely soluble (visual observations) ([2]; in Transcutol P): ~15%
concentration at which luliconazole was completely soluble (visual observations) ([2]; in benzyl alcohol): ~40%
Solubility wt/wt % 4° C. 24 hr [3, 9]: 13.1 % wt/wt
Solubility wt/wt % 4° C. 3 days [3, 9]: 12 % wt/wt and 12.49 % wt/wt
Solubility wt/wt % RT 24 hr ([3]; in Acetone (theoretical 18%; #853-38-14), average duplicate sample preparations): 17.67* % wt/wt
Solubility wt/wt % RT 3 days ([3]; in Benzyl alcohol (50%; saturated solution; #802-24-01)): 43 % wt/wt and 43.44 % wt/wt
Solubility wt/wt % 4° C. 24 hr [3, 5]: 39.87 % wt/wt
Solubility wt/wt % 4° C. 3 days [3, 5]: 40 % wt/wt and 39.18 % wt/wt
Solubility wt/wt % RT 24 hr [3, 5]: 40.19 % wt/wt
Solubility wt/wt % RT 3 days ([3]; in Benzyl alcohol (theoretical 40%; #853-38-13), average duplicate sample preparations): 40 % wt/wt and 39.91* % wt/wt
Solubility wt/wt % 4° C. 24 hr [3, 6]: 2.67 % wt/wt
Solubility wt/wt % 4° C. 3 days [3, 6]: 2.3 % wt/wt
Solubility wt/wt % RT 24 hr [3, 6]: 3.51 % wt/wt
Solubility wt/wt % 4° C. 24 hr [3, 7]: 6.14 % wt/wt
Solubility wt/wt % RT 24 hr ([3]; in Ethyl acetate (theoretical 6.5%; #853-38-12), average duplicate sample preparations): 6.58* % wt/wt
Solubility wt/wt % RT 24 hr ([3]; in Isopropyl myristate (theoretical 5%; #853-38-10)): 0.4 % wt/wt and 0.41 % wt/wt
Solubility wt/wt % RT 24 hr ([3]; in Propylene carbonate (theoretical 10%; #853-38-11)): 8.98 % wt/wt
Solubility wt/wt % 4° C. 3 days [3, 8]: 14.78 % wt/wt
Solubility wt/wt % RT 24 hr [3, 8]: 15.12 % wt/wt
Solubility wt/wt % RT 3 days [3, 8]: 14.89 % wt/wt
MIC Range (genus Trichophyton; T. mentagrophytes (4 strains)): 1 to 2 ng/mL
MIC Range (genus Trichophyton; T. rubrum (4 strains)): 0.24 to 0.5 ng/mL
SMILES: N#C/C(=C1/SC[C@@H](c2ccc(Cl)cc2Cl)S1)n1ccnc1 [luliconazole, (−)-(E)-[(4R)-(2,4-dichlorophenyl)-1,3-dithiolan-2-ylidene](1H-imidazol-1-yl)acetonitrile]
solubility in water [1]: practically insoluble in water
potency compared with reference drugs [4]: greater potency

SMILES: CN(C/C=C/C#CC(C)(C)C)Cc1cccc2ccccc12 [terbinafine]
patients with both mycological cure and clinical cure (onychomycosis): 38%
